The text below walks through data of patent publication US11111243B2, “Azaindole compounds as histone methyltransferase inhibitors” (GLOBAL BLOOD THERAPEUTICS, INC., priority 2017, dated 2021).

This assay deals with T1, G9a (Homo sapiens, UniProt Q96KQ7).
T1 sequence (Q96KQ7 1-1210): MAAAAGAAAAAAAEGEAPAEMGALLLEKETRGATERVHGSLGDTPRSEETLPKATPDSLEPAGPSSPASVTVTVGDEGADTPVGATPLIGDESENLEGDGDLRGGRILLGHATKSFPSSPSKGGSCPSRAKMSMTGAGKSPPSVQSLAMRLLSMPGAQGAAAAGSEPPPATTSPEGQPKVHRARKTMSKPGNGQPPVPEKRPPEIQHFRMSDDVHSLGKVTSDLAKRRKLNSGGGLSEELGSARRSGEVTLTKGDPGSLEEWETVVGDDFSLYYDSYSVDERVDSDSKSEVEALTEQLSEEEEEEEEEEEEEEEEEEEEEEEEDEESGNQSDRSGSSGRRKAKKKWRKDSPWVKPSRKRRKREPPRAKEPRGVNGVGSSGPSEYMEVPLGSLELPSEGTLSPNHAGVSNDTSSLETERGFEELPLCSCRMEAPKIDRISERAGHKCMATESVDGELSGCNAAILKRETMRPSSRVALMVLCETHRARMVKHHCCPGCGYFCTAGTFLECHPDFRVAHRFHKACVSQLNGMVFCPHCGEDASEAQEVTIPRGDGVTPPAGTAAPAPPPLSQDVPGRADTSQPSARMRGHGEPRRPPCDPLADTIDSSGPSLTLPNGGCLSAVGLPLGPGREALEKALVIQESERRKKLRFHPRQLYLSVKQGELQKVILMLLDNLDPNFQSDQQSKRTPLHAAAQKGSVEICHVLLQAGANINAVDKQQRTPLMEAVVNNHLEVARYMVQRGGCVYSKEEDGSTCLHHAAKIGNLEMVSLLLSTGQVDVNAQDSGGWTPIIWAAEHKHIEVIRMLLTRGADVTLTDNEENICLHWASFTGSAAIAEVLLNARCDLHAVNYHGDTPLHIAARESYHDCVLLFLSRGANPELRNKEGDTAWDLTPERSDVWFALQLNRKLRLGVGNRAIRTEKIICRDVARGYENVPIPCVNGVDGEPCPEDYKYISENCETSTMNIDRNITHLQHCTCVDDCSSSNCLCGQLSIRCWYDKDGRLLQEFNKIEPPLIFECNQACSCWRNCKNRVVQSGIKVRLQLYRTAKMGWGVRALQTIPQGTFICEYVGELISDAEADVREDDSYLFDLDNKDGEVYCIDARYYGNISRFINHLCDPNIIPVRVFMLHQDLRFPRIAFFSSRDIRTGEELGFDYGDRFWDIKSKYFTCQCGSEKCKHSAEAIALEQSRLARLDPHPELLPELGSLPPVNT
The assay is described as follows: G9a AlphaLISA enzymatic activity assay. In kind it is biochemical. The note with it: 0.15 nM G9a, 10 uM S-adenosyl-methionine, 100 nM biotinylated histone 3 peptide (1-21), 1 h room temperature. An excerpt:
The G9a AlphaLISA assay was used to detect the methyl modifications of a biotinylated histone H3 peptide by the compounds. These modifications are done by the histone methyl transferase activity of the G9a enzyme. The assay consists of reading a chemiluminescent signal at 615 nm; this signal is generated by a laser excitation at 680 nm that transfers a reactive singlet oxygen between the donor beads and acceptor beads. Donor beads are streptavidin conjugated and bind to the biotin on the peptide. Acceptor beads are conjugated with an antibody that recognizes the specific G9a methyl mark on the peptide. If there is a methyl mark on the peptide, the acceptor beads will bind to the peptide. Upon binding, the acceptor beads will be in close proximity (<200 nm) of the donor beads and when the donor beads are excited, the transfer of the oxygen can occur and a strong signal will be generated. If there is no methyl mark, the interaction between beads will not occur and signal will be at background levels.
For the assay, the following buffer was used to set up reactions: 50 mM Tris-HCl pH9, 50 mM NaCl, 0.01% Tween-20 and 1 mM DTT (added fresh prior to starting the reactions). The assay is set up by adding a final concentration of 0.15 nM G9a, 10 uM S-adenosyl-methionine and, 100 nM biotinylated histone 3 peptide (1-21). The reaction is incubated at room temperature for 1 h, and subsequently quenched by the addition of the acceptor beads (anti-H3k9me2 AlphaLISA acceptor beads, PerkinElmer #AL117) at a final concentration of 20 ug/mL. The acceptor beads are incubated for 1 h. After 1 h, the donor beads are added at a final concentration of 20 ug/mL (Alpha Streptavidin donor beads, PerkinElmer #6760002). Donor beads are incubated for 0.5 h. Both donor and acceptor beads are resuspended in AlphaLISA 5× Epigenetics Buffer 1 Kit (PerkinElmer #AL008) prior to addition to the reaction. All manipulations and incubations with the donor and acceptor beads are done in subdued light. Signal is detected in an EnVision plate reader in Alpha mode (See ACS Med Chem Lett. 2014 Jan. 2; 5(2):205-9)
Percent inhibition was calculated for each compound dilution and the concentration that produced 50% inhibition was calculated. This value is presented as the IC50.
(In general: Bead proximity is the source of the signal in Alpha formats.)

Structures can show the parent of a compound that is named as a salt.

What is called IC50 is the concentration needed to halve the response being measured. Low values mean higher potency, high ones lower potency. As for `COc1cc2c(cc1OCCCN(C)C)[nH]c1ccnc(N3CCCC3)c12` [Compound 92, (3-{[8-methoxy-1-(pyrrolidin-1-yl)-5H-pyrido[4,3-b]indol-7-yl]oxy}propyl)dimethylamine hydrochloride], half-maximal inhibition (IC50) was put at 51 nM. This counts as double-digit nanomolar.
The value for `COCCOc1nccc2[nH]c3cc(OCCCN4CCCC4)c(OC)cc3c12` [Compound 96, 1-(3-{[8-methoxy-1-(2-methoxyethoxy)-5H-pyrido[4,3-b]indol-7-yl]oxy}propyl)pyrrolidine trifluoroacetate] was 3300 nM; that for `COc1cc2c(cc1OCCCN1CCCC1)[nH]c1ccncc12` [Compound 6, 1-[3-({8-methoxy-5H-pyrido[4,3-b]indol-7-yl}oxy)propyl]pyrrolidine] was 3.2 nM.
For `COc1cc2c(cc1OCCCN1CCCC1)[nH]c1ncccc12` [Compound 7, 1-[3-({6-methoxy-9H-pyrido[2,3-b]indol-7-yl}oxy)propyl]pyrrolidine], the IC50 amounted to 280 nM.
`COc1cc2c(cc1OCCCN1CCCC1)[nH]c1cncnc12` [Compound 44, 1-[3-({8-methoxy-5H-pyrimido[5,4-b]indol-7-yl}oxy)propyl]pyrrolidine] registered an IC50 of 170 nM. This IC50 is about 1.6-fold lower than that of the compound before.
On to `COc1cc2c(cc1OCCCN(C)C)[nH]c1ccncc12` [Compound 88, [3-({8-methoxy-5H-pyrido[4,3-b]indol-7-yl}oxy)propyl]dimethylamine hydrochloride], for which half-maximal inhibition (IC50) required 12 nM.
The value for `COc1cc2c(cc1OCCCN1CCCC1)[nH]c1ccnc(-c3cccnc3)c12` [Compound 24, 8-methoxy-1-(pyridin-3-yl)-7-(3-(pyrrolidin-1-yl)propoxy)-5H-pyrido[4,3-b]indole] was 93 nM.
The result for `COc1cc2c(cc1OCCCN1CCCC1)[nH]c1ccnc(C3CCOCC3)c12` [Compound 65, 1-(3-{[8-methoxy-1-(oxan-4-yl)-5H-pyrido[4,3-b]indol-7-yl]oxy}propyl)pyrrolidine hydrochloride] reads 8.2 nM.
Consider `COc1cc2c(cc1OCCCN1CCCC1)[nH]c1ccnc(N3CC[C@H](O)C3)c12` [Compound 11, (3S)-1-{8-methoxy-7-[3-(pyrrolidin-1-yl)propoxy]-5H-pyrido[4,3-b]indol-1-yl}pyrrolidin-3-ol], for which the IC50 came out at 8.2 nM.
The result for `COc1cc2c(cc1OCCCN1CCCC1)[nH]c1cc(C3CC3)ncc12` [Compound 101, 1-[3-({3-cyclopropyl-8-methoxy-5H-pyrido[4,3-b]indol-7-yl}oxy)propyl]pyrrolidine hydrochloride] reads 120 nM; that for `COCCCc1nccc2[nH]c3cc(OCCCN(C)C)c(OC)cc3c12` [Compound 58, (3-{[8-methoxy-1-(3-methoxypropyl)-5H-pyrido[4,3-b]indol-7-yl]oxy}propyl)dimethylamine hydrochloride], 86 nM; that for `COc1cc2c(cc1OCCCN1CCCC1)[nH]c1ccnc(OC)c12` [Compound 100, 1-[3-({1,8-dimethoxy-5H-pyrido[4,3-b]indol-7-yl}oxy)propyl]pyrrolidine hydrochloride], 380 nM.
Consider `COc1cc2c(cc1OCCOCCN(C)C)[nH]c1ccnc(C3CC3)c12` [Compound 53, {2-[2-({1-cyclopropyl-8-methoxy-5H-pyrido[4,3-b]indol-7-yl}oxy)ethoxy]ethyl}dimethylamine hydrochloride], for which the midpoint of inhibition, the IC50, lay at 62 nM.
The result for `COc1cc2c(cc1OCCCN(C(C)C)C(C)C)[nH]c1ccnc(C3CC3)c12` [Compound 61, [3-({1-cyclopropyl-8-methoxy-5H-pyrido[4,3-b]indol-7-yl}oxy)propyl]bis(propan-2-yl)amine hydrochloride] reads 480 nM; that for `COc1cc2c(cc1OCCCN(C)C)[nH]c1ccnc(CCC(C)(C)O)c12` [Compound 49, 4-{7-[3-(dimethylamino)propoxy]-8-methoxy-5H-pyrido[4,3-b]indol-1-yl}-2-methylbutan-2-ol hydrochloride], 45 nM.
`COc1cc2c(cc1OCCCN1CCCC1)[nH]c1nc(N)ccc12` [Compound 33, 6-methoxy-7-[3-(pyrrolidin-1-yl)propoxy]-9H-pyrido[2,3-b]indol-2-amine hydrochloride] registered an IC50 of 320 nM.
The compound `COc1cc2c(cc1OCCCN(C)C)[nH]c1ccnc(C#CC(C)O)c12` (centres unmarked) [Compound 50, 4-{7-[3-(dimethylamino)propoxy]-8-methoxy-5H-pyrido[4,3-b]indol-1-yl}but-3-yn-2-ol hydrochloride] gave an IC50 of 690 nM.
The value for `COC[C@H](C)Nc1nccc2[nH]c3cc(OCCCN4CCCC4)c(OC)cc3c12` [Compound 14, 8-methoxy-N-[(2S)-1-methoxypropan-2-yl]-7-[3-(pyrrolidin-1-yl)propoxy]-5H-pyrido[4,3-b]indol-1-amine] was 6.5 nM.
The result for `COc1cc2c(cc1OCCCN1CCCC1)[nH]c1ccnc(OC3CCNC3)c12` (centres unmarked) [Compound 74, 3-({8-methoxy-7-[3-(pyrrolidin-1-yl)propoxy]-5H-pyrido[4,3-b]indol-1-yl}oxy)pyrrolidine bis(2,2,2-trifluoroacetate)] reads 6.7 nM.
The value for `COc1cc2c(cc1OCCCN1CCCC1)[nH]c1cc(N)ncc12` [Compound 8, 8-methoxy-7-[3-(pyrrolidin-1-yl)propoxy]-5H-pyrido[4,3-b]indol-3-amine] was 5.3 nM; that for `COc1cc2c(cc1OCCCN(C)C)[nH]c1ccnc(CCC3CC3)c12` [Compound 52, 3-((1-(2-cyclopropylethyl)-8-methoxy-5H-pyrido[4,3-b]indol-7-yl)oxy)-N,N-dimethylpropan-1-amine hydrochloride] was 100 nM.
The compound `COc1cc2c(cc1OCCCN(C)C)[nH]c1ccnc(SC)c12` [Compound 95, (3-{[8-methoxy-1-(methylsulfanyl)-5H-pyrido[4,3-b]indol-7-yl]oxy}propyl)dimethylamine hydrochloride] came in with an IC50 of 560 nM.
The value for `COc1cc2c(cc1OCC1CCCNC1)[nH]c1ccncc12` (centres unmarked) [Compound 87, 3-[({8-methoxy-5H-pyrido[4,3-b]indol-7-yl}oxy)methyl]piperidine hydrochloride] was 240 nM; that for `COc1cc2c(cc1OCCCN1CCCC1)[nH]c1ccnc(N3CCC(O)CC3)c12` [Compound 16, 1-{8-methoxy-7-[3-(pyrrolidin-1-yl)propoxy]-5H-pyrido[4,3-b]indol-1-yl}piperidin-4-ol] was 61 nM.
In turn, `COc1cc2c(cc1OCCCN(C)C)[nH]c1ccnc(C3CCC3)c12` [Compound 69, [3-({1-cyclobutyl-8-methoxy-5H-pyrido[4,3-b]indol-7-yl}oxy)propyl]dimethylamine hydrochloride] registered an IC50 of 30 nM.
As to `COc1cc2c(cc1OCCCN1CCCC1C)[nH]c1ccnc(C3CC3)c12` (centres unmarked) [Compound 60, 1-[3-({1-cyclopropyl-8-methoxy-5H-pyrido[4,3-b]indol-7-yl}oxy)propyl]-2-methylpyrrolidine hydrochloride], the half-maximal inhibitory concentration (IC50) turned out to be 51 nM.
